# Patent US20080004266A1, “Method for treating proliferative disorders associated with protooncogene products” (priority 2006, published 2008)
# Values joined by “and” are separate entries in the source; they are usually repeats but may differ in a detail not shown here. Equal values may be shown once.
# Columns and labels:
# V600E mutant B-raf = test: Degradation of B-raf in A375 melanoma cells (Western blot); format: cell-based, human; conditions: 18 hours, at 0.5 mM and 0.1 mM (so in the source)
# Description: […] After 18 hours, the cells were lysed with 1× lysis buffer and a western blot was perform, and B-raf was detected with anti-B-raf antibody.
# K562 cells (Bcr-Abl) = test: Cell survival in K562 cells (Cell Counting Kit-8); format: cell-based, human; conditions: Homo sapiens, 72 hours
# Description: Growth of this tumor cell line is dependent upon the expression of the Bcr-Abl fusion protein (C. Gambacarti-Passerini et al., Blood Cells Mol. Dis. 23:380-394, 1997). K562 cells (20,000 cells/well) were cultured in 96-well plates and maintained at 37° C. for several hours. […] 17AAG, DMAG, and Radicical are Hsp90 inhibitors that are currently in clinical trials and are used here as positive controls for Hsp90 inhibition. […] Cell survival was measured with Cell Counting Kit-8 (Dojindo Laboratories, Cat # CK04).
# [1] = tested on: human chronic myelogenous leukemia tumor cell line K-562; test: K-562 (Bcr-Abl) SCID mouse xenograft model; format: in vivo, human (xenograft in SCID mouse); conditions: 35 mg/kg i.v. 5 times per week, day 17
# Description: Growth of this tumor cell line is dependent upon the expression of the Bcr-Abl fusion protein (C. Gambacarti-Passerini et al., Blood Cells Mol. Dis. 23:380-394, 1997). The cells were cultured in growth media prepared with Iscove's Modified Dulbecco's Media, 10% fetal bovine serum (FBS), 1% 100× Penicillin-Streptomycin, 1% 100× sodium pyruvate and 1% 100×MEM non-essential amino acids. FBS was obtained from ATCC and all other reagents were obtained from Invitrogen Corp. (Carlsbad, Calif., USA). Cells that had been cryopreserved in liquid nitrogen were rapidly thawed at 37° C. and transferred to a tissue culture flask containing growth media and then incubated at 37° C. in a 5% CO2 incubator. […]
# Seven to eight week old, female CB17/Icr-Prkdc^scid/Crl (SCID) mice were obtained from Charles River Laboratories (Wilmington, Mass., USA). […] To implant K-562 tumor cells into SCID mice, cell cultures were centrifuged to pellet the cells, the supernatant was aspirated, the cell pellet was resuspended in 10 ml of growth media and the cell number determined using a hemocytometer. […]
# Tumors were then permitted to develop in vivo until the majority reached 100-200 mm^3 in tumor volume, which typically required 1-2 weeks following implantation. […] Tumor volumes (V) were calculated by caliper measurement of the width (W), length (L) and thickness (T) of tumors using the following formula: V=0.5236×(L×W×T). […]
compound,measurement,setting,value
"CC(C)c1cc(-c2nnc(O)n2-c2ccc3c(ccn3C)c2)c(O)cc1O [Compound 226, 3-(2,4-di-hydroxy-5-isopropyl-phenyl)-4-(1-methyl-indol-5-yl)-5-hydroxy-[1,2,4] triazole]",degradation of V600E mutant B-raf,V600E mutant B-raf,induced degradation
same,IC50,K562 cells (Bcr-Abl),14 nM
same,average bodyweight loss relative to the start of the study,[1],−12.4% (+/−1.4 SEM)
same,% T/C value,"[1]; SCID mice, 6 doses, 35 mg/kg",25% and 24.7%
